Common to all, as to assay type: functional
One assay concerns Human rhinovirus 1A. As to the kind of experiment: Virus rating against rhinovirus type 1A.
For the next assay, the system named is Human alphaherpesvirus 2. As to the kind of experiment: Virus rating of against herpes simplex virus type 2.
A further assay concerns Human respirovirus 3. As to the kind of experiment: Virus rating against parainfluenza virus type 3.
Another assay concerns Human adenovirus 2. As to the kind of experiment: Virus rating against adenovirus type 2.

The structures appear in SMILES notation.

Turning to `CSc1ncnc2c1ccn2[C@@H]1O[C@H](CO)[C@@H](O)[C@H]1O`, the Rating in the assay on Human rhinovirus 1A stood at 0.6; with Human alphaherpesvirus 2, 0; in the assay on Human respirovirus 3 it was 0.9; with Human adenovirus 2, 0.
`O=C1N=CN=C2C([C@@H]3O[C@H](CO)[C@@H](O)[C@H]3O)=NNC12` (stereo not given in full): the Rating with Human rhinovirus 1A came out at 0.3; in the assay with Human alphaherpesvirus 2, 0; with Human respirovirus 3, 0.94; in the assay on Human adenovirus 2, 0.
In the case of `OC[C@H]1O[C@@H](C2=NNC3C(=S)N=CN=C23)[C@H](O)[C@@H]1O` (stereo not given in full), the Rating in the assay with Human rhinovirus 1A is 0.9; in the assay with Human alphaherpesvirus 2 it was 0; in the assay with Human respirovirus 3 it was 1.1; in the assay on Human adenovirus 2 it was 1.
The corresponding values for `CSc1ncnc2c([C@@H]3O[C@H](CO)[C@@H](O)[C@H]3O)n[nH]c12` are 0, 0.3, 1.35 and 0.8.
The corresponding values for `COc1c([C@@H]2O[C@H](CO)[C@@H](O)[C@H]2O)nn(C)c1C(N)=O` are 0, 0.3, 1.65 and 1.
The like results for `NC(=O)C1NN=C([C@@H]2O[C@H](CO)[C@@H](O)[C@H]2O)C1=O` (stereo not given in full) were, in that order, 0.6, 1, 1.65 and 0.
`NC(=O)c1ccnc([C@@H]2O[C@H](CO)[C@@H](O)[C@H]2O)n1`: the Rating turned out to be 0 in the assay with Human rhinovirus 1A, 0 with Human alphaherpesvirus 2, 0.25 in the assay on Human respirovirus 3 and 0 in the assay on Human adenovirus 2.
Consider `O=c1[nH]c(=O)c2[nH]nc([C@@H]3O[C@H](CO)[C@@H](O)[C@H]3O)c2[nH]1`, for which the Rating turned out to be 0 in the assay with Human rhinovirus 1A, 0.12 with Human alphaherpesvirus 2, 0.68 in the assay with Human respirovirus 3 and 0 in the assay on Human adenovirus 2.
For the compound `Nc1[nH]c(=O)nc2c([C@@H]3O[C@H](CO)[C@@H](O)[C@H]3O)n[nH]c12`, the Rating in the assay with Human rhinovirus 1A amounted to 0; in the assay on Human alphaherpesvirus 2 it was 0.75; in the assay with Human respirovirus 3 it was 1.22; with Human adenovirus 2 it was 0.
On to `Cn1nc([C@@H]2O[C@H](CO)[C@@H](O)[C@H]2O)c2ncnc(N)c21`, for which the Rating with Human rhinovirus 1A is 0; with Human alphaherpesvirus 2 it was 0.2; in the assay with Human respirovirus 3 it was 0.86; with Human adenovirus 2, 0.
Regarding `CN1C=NC(N)=C2NNC([C@@H]3O[C@H](CO)[C@@H](O)[C@H]3O)=C21`, the Rating in the assay with Human rhinovirus 1A came out at 0; with Human alphaherpesvirus 2, 0; with Human respirovirus 3, 1.28; in the assay with Human adenovirus 2, 0.
As to `Cn1cnc2c([C@@H]3O[C@H](CO)[C@@H](O)[C@H]3O)nnc-2c1N`, the Rating in the assay with Human rhinovirus 1A worked out at 0; in the assay on Human alphaherpesvirus 2 it was 0.88; in the assay with Human respirovirus 3, 1.16; in the assay on Human adenovirus 2 it was 0.
In the assay with Human respirovirus 3, `Cn1nc([C@@H]2O[C@H](CO)[C@@H](O)[C@H]2O)c2nc(=O)[nH]c(N)c21` showed a Rating of 0.88.
Turning to `Nc1cc2c(ncn2[C@@H]2O[C@H](CO)[C@@H](O)[C@H]2O)c(=O)[nH]1`, the Rating was 1 with Human rhinovirus 1A, 1.06 in the assay with Human alphaherpesvirus 2, 0.8 in the assay with Human respirovirus 3 and 0.2 in the assay with Human adenovirus 2.
Regarding `CSc1ncnc2c1ncn2[C@@H]1O[C@H](CO)[C@@H](O)[C@H]1O`, the Rating in the assay with Human rhinovirus 1A is 0.8; in the assay with Human alphaherpesvirus 2 it was 1.25; in the assay with Human respirovirus 3, 2.2; in the assay on Human adenovirus 2 it was 0.
Compound `OC[C@H]1O[C@@H](n2ccc3c(S)ncnc32)[C@H](O)[C@@H]1O` had a Rating in the assay on Human respirovirus 3 of 1.15.
Regarding `OC[C@H]1OC(n2ncc3c(S)ncnc32)[C@H](O)[C@@H]1O` (stereo not given in full), the Rating in the assay on Human rhinovirus 1A is 0; in the assay with Human alphaherpesvirus 2, 0; in the assay with Human respirovirus 3, 0.7; in the assay on Human adenovirus 2 it was 0.
As for `CSc1ncnc2c1cnn2C1O[C@H](CO)[C@@H](O)[C@H]1O` (stereo not given in full), the Rating with Human rhinovirus 1A was 0.6; in the assay on Human alphaherpesvirus 2 it was 0; in the assay on Human respirovirus 3, 1.05; with Human adenovirus 2, 0.
Regarding `Nc1nn(C2O[C@H](CO)[C@@H](O)[C@H]2O)c2nc[nH]c(=O)c12` (stereo not given in full), the Rating is listed as 0 in the assay on Human rhinovirus 1A, 0 in the assay on Human alphaherpesvirus 2, 0.28 with Human respirovirus 3 and 0 with Human adenovirus 2.
Consider `OC[C@H]1OC(n2cc3c(O)nc(Cl)nc3n2)[C@H](O)[C@@H]1O` (stereo not given in full), for which the Rating was determined as 0 with Human rhinovirus 1A, 0 in the assay with Human alphaherpesvirus 2, 0.25 in the assay on Human respirovirus 3 and 0 in the assay with Human adenovirus 2.
With `Nc1nc(Cl)cc2c1ncn2C1O[C@H](CO)[C@@H](O)[C@H]1O` (stereo not given in full), the Rating in the assay on Human rhinovirus 1A stood at 0; in the assay on Human alphaherpesvirus 2, 0; with Human respirovirus 3, 0.35; in the assay with Human adenovirus 2, 0.
Consider `Nc1nc(Cl)nc2c1cnn2C1O[C@H](CO)[C@@H](O)[C@H]1O` (stereo not given in full), for which the Rating was determined as 0 in the assay with Human rhinovirus 1A, 0 with Human alphaherpesvirus 2, 0.15 in the assay on Human respirovirus 3 and 0 in the assay on Human adenovirus 2.
Take `NC(=O)c1cn(C2O[C@H](CO)[C@@H](O)[C@H]2O)[nH]c1=O` (stereo not given in full): the Rating with Human rhinovirus 1A worked out at 0; in the assay with Human alphaherpesvirus 2, 0; in the assay on Human respirovirus 3, 0.15; with Human adenovirus 2 it was 0.
Consider `Nc1ncnc2c([C@@H]3O[C@H](CO)[C@@H](O)[C@H]3O)[nH]nc12` [FORMYCIN], for which the Rating is on record as 0.1 in the assay on Human rhinovirus 1A, 0.2 with Human alphaherpesvirus 2, 1.4 with Human respirovirus 3 and 0 in the assay with Human adenovirus 2.
On to `O=c1[nH]cnc2c1ccn2[C@@H]1O[C@H](CO)[C@@H](O)[C@H]1O` [IMMUNICILLIN H], for which the Rating in the assay with Human rhinovirus 1A was 0; in the assay on Human respirovirus 3 it was 0.08; in the assay on Human adenovirus 2, 0.
Turning to `NC(=O)c1ncn([C@@H]2O[C@H](CO)[C@@H](O)[C@H]2O)n1` [RIBAVIRIN], the Rating with Human rhinovirus 1A is 0.7; in the assay on Human alphaherpesvirus 2, 1.4; with Human respirovirus 3, 1.3; in the assay on Human adenovirus 2, 0.3.
For the compound `N=C(N)c1ncn([C@@H]2O[C@H](CO)[C@@H](O)[C@H]2O)n1` [TARIBAVIRIN], the Rating in the assay on Human rhinovirus 1A is recorded as 0.2; in the assay with Human alphaherpesvirus 2 it was 0; with Human respirovirus 3, 1.2; with Human adenovirus 2, 0.
On to `NC(=O)c1csc([C@@H]2O[C@H](CO)[C@@H](O)[C@H]2O)n1` [TIAZOFURIN], for which the Rating with Human rhinovirus 1A is given as 0; with Human alphaherpesvirus 2, 1.19; in the assay with Human respirovirus 3, 1.3; with Human adenovirus 2 it was 0.2.

(Values after ChEMBL document CHEMBL1124438, “Analysis of the in vitro antiviral activity of certain ribonucleosides against parainfluenza virus using a novel computer aided receptor modeling procedure” (1989).)
